From the NIST ThermoML archive (doi:10.1016/j.tca.2013.03.025)
Numbers after ± are expanded uncertainties.

Test: xn = mol fraction of the nth substance listed
Details: 101 kPa, Liquid; for viscosity: Concentric cylinders viscometry; for mass density: Vibrating tube method

CCCCOC(=O)C(C)O (stereo not given) [butyl 2-hydroxypropanoate] + CCCO showed a viscosity (308.15 K, x1 = 0.1) of 1.603 ± 0.016 mPa·s, a viscosity (308.15 K, x1 = 0.2) of 1.679 ± 0.018 mPa·s and a viscosity (308.15 K, x1 = 0.3001) of 1.769 ± 0.02 mPa·s. For the same molecule, the viscosity (308.15 K, x1 = 0.3998) was 1.862 ± 0.022 mPa·s, the viscosity (308.15 K, x1 = 0.5) was 1.957 ± 0.025 mPa·s and the viscosity (308.15 K, x1 = 0.5999) was 2.05 ± 0.028 mPa·s. For the same molecule, the viscosity (308.15 K, x1 = 0.7001) was 2.143 ± 0.031 mPa·s, the viscosity (308.15 K, x1 = 0.7996) was 2.238 ± 0.035 mPa·s and the viscosity (308.15 K, x1 = 0.8998) was 2.346 ± 0.039 mPa·s. It also gave a viscosity (308.15 K, x1 = 1) of 2.481 ± 0.043 mPa·s, a mass density (308.15 K, x1 = 0.1) of 824.744 ± 0.19 kg/m3 and a mass density (308.15 K, x1 = 0.2) of 852.093 ± 0.24 kg/m3. It also gave a mass density (308.15 K, x1 = 0.3001) of 875.001 ± 0.32 kg/m3, a mass density (308.15 K, x1 = 0.3998) of 894.346 ± 0.43 kg/m3 and a mass density (308.15 K, x1 = 0.5) of 911.045 ± 0.58 kg/m3. For the same molecule, the mass density (308.15 K, x1 = 0.5999) was 925.444 ± 0.75 kg/m3, the mass density (308.15 K, x1 = 0.7001) was 938.146 ± 0.96 kg/m3 and the mass density (308.15 K, x1 = 0.7996) was 949.162 ± 1.2 kg/m3. It also gave a mass density (308.15 K, x1 = 0.8998) of 958.949 ± 1.5 kg/m3, a mass density (308.15 K, x1 = 1) of 967.567 ± 1.8 kg/m3 and a viscosity (313.15 K, x1 = 0.1) of 1.431 ± 0.015 mPa·s. The viscosity (313.15 K, x1 = 0.2) was 1.5 ± 0.016 mPa·s, the viscosity (313.15 K, x1 = 0.3001) was 1.579 ± 0.018 mPa·s and the viscosity (313.15 K, x1 = 0.3998) was 1.659 ± 0.02 mPa·s. The viscosity (313.15 K, x1 = 0.5) was 1.739 ± 0.022 mPa·s, the viscosity (313.15 K, x1 = 0.5999) was 1.818 ± 0.025 mPa·s and the viscosity (313.15 K, x1 = 0.7001) was 1.899 ± 0.028 mPa·s. For the same molecule, the viscosity (313.15 K, x1 = 0.7996) was 1.982 ± 0.031 mPa·s, the viscosity (313.15 K, x1 = 0.8998) was 2.075 ± 0.034 mPa·s and the viscosity (313.15 K, x1 = 1) was 2.181 ± 0.038 mPa·s. For the same molecule, the mass density (313.15 K, x1 = 0.1) was 820.45 ± 0.19 kg/m3, the mass density (313.15 K, x1 = 0.2) was 847.649 ± 0.24 kg/m3 and the mass density (313.15 K, x1 = 0.3001) was 870.443 ± 0.32 kg/m3. The mass density (313.15 K, x1 = 0.3998) was 889.684 ± 0.43 kg/m3, the mass density (313.15 K, x1 = 0.5) was 906.306 ± 0.57 kg/m3 and the mass density (313.15 K, x1 = 0.5999) was 920.642 ± 0.75 kg/m3. The mass density (313.15 K, x1 = 0.7001) was 933.287 ± 0.95 kg/m3, the mass density (313.15 K, x1 = 0.7996) was 944.258 ± 1.2 kg/m3 and the mass density (313.15 K, x1 = 0.8998) was 954.012 ± 1.5 kg/m3. For the same molecule, the mass density (313.15 K, x1 = 1) was 962.603 ± 1.8 kg/m3, the viscosity (318.15 K, x1 = 0.1) was 1.287 ± 0.013 mPa·s and the viscosity (318.15 K, x1 = 0.2) was 1.349 ± 0.015 mPa·s. It also gave a viscosity (318.15 K, x1 = 0.3001) of 1.417 ± 0.016 mPa·s, a viscosity (318.15 K, x1 = 0.3998) of 1.486 ± 0.018 mPa·s and a viscosity (318.15 K, x1 = 0.5) of 1.554 ± 0.02 mPa·s. It also gave a viscosity (318.15 K, x1 = 0.5999) of 1.623 ± 0.022 mPa·s, a viscosity (318.15 K, x1 = 0.7001) of 1.693 ± 0.025 mPa·s and a viscosity (318.15 K, x1 = 0.7996) of 1.766 ± 0.028 mPa·s. The viscosity (318.15 K, x1 = 0.8998) was 1.847 ± 0.031 mPa·s, the viscosity (318.15 K, x1 = 1) was 1.935 ± 0.034 mPa·s and the mass density (318.15 K, x1 = 0.1) was 816.108 ± 0.19 kg/m3. The mass density (318.15 K, x1 = 0.2) was 843.16 ± 0.24 kg/m3, the mass density (318.15 K, x1 = 0.3001) was 865.84 ± 0.32 kg/m3 and the mass density (318.15 K, x1 = 0.3998) was 884.981 ± 0.43 kg/m3. It also gave a mass density (318.15 K, x1 = 0.5) of 901.531 ± 0.57 kg/m3, a mass density (318.15 K, x1 = 0.5999) of 915.803 ± 0.74 kg/m3 and a mass density (318.15 K, x1 = 0.7001) of 928.398 ± 0.94 kg/m3. It also gave a mass density (318.15 K, x1 = 0.7996) of 939.33 ± 1.2 kg/m3, a mass density (318.15 K, x1 = 0.8998) of 949.054 ± 1.4 kg/m3 and a mass density (318.15 K, x1 = 1) of 957.624 ± 1.7 kg/m3. It also gave a viscosity (323.15 K, x1 = 0.1) of 1.169 ± 0.012 mPa·s, a viscosity (323.15 K, x1 = 0.2) of 1.222 ± 0.013 mPa·s and a viscosity (323.15 K, x1 = 0.3001) of 1.28 ± 0.015 mPa·s. The viscosity (323.15 K, x1 = 0.3998) was 1.339 ± 0.016 mPa·s, the viscosity (323.15 K, x1 = 0.5) was 1.398 ± 0.018 mPa·s and the viscosity (323.15 K, x1 = 0.5999) was 1.458 ± 0.02 mPa·s. It also gave a viscosity (323.15 K, x1 = 0.7001) of 1.519 ± 0.022 mPa·s, a viscosity (323.15 K, x1 = 0.7996) of 1.584 ± 0.025 mPa·s and a viscosity (323.15 K, x1 = 0.8998) of 1.653 ± 0.028 mPa·s. It also gave a viscosity (323.15 K, x1 = 1) of 1.728 ± 0.031 mPa·s, a mass density (323.15 K, x1 = 0.1) of 811.714 ± 0.19 kg/m3 and a mass density (323.15 K, x1 = 0.2) of 838.623 ± 0.24 kg/m3. It also gave a mass density (323.15 K, x1 = 0.3001) of 861.188 ± 0.32 kg/m3, a mass density (323.15 K, x1 = 0.3998) of 880.239 ± 0.43 kg/m3 and a mass density (323.15 K, x1 = 0.5) of 896.715 ± 0.57 kg/m3. It also gave a mass density (323.15 K, x1 = 0.5999) of 910.93 ± 0.74 kg/m3, a mass density (323.15 K, x1 = 0.7001) of 923.482 ± 0.94 kg/m3 and a mass density (323.15 K, x1 = 0.7996) of 934.378 ± 1.2 kg/m3. For the same molecule, the mass density (323.15 K, x1 = 0.8998) was 944.076 ± 1.4 kg/m3 and the mass density (323.15 K, x1 = 1) was 952.631 ± 1.7 kg/m3.
